pIC50: −log10 of the molar value.
Molecular target: T1, Gaussia luciferase (GLuc) (Gaussia princeps (in: crustaceans), UniProt Q9BLZ2)
T1 sequence (Q9BLZ2 18-185): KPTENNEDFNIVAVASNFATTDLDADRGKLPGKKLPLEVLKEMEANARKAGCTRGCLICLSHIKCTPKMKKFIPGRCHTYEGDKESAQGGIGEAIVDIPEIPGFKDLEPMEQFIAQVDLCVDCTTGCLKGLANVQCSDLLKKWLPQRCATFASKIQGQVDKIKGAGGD
Assay: bioluminescence inhibition assay
Assay type: biochemical

A pIC50 of 4.00 to 5.00 was found for `O=c1n(Cc2ccc(O)cc2)nc2c(Cc3ccccc3)nc(-c3ccc(O)cc3)cn12` [Aza-CTZ] in this work.
